Source: article PMC3401907, “Cellular Uptakes, Biostabilities and Anti-miR-210 Activities of Chiral Arginine-PNAs in Leukaemic K562 Cells” (Chembiochem, 2012)

Tests used:
[1] = system: DNA1 (full-match antiparallel DNA); test: Melting temperature (Tm) of PNA:DNA duplexes, full-match DNA; type: binding; settings: UV absorbance at 260 nm, strand concentration 5 μM
Procedure: Measurements of Tm values: The Tm values were determined with a Lambda Bio 20 spectrophotometer and a Peltier PTP6 temperature programmer. Thermal denaturation profiles were measured by monitoring the absorbance at 260 nm from 18 to 90 °C with a heating rate of 1 °C min^−1 and recording every 0.1 °C. […]

[2] = system: DNA2 (mismatched DNA, G→T); test: Melting temperature (Tm) of PNA:DNA duplexes, single-mismatch DNA; type: binding
Description: Sequence selectivity is a very important issue in view of the use of PNAs in cellular systems, because partial hybridisation might occur with other unrelated miRNAs or, most importantly, with mRNA targets. We analysed the sequence selectivities of our PNAs with stricter models (DNA2 and RNA2) involving single base mismatches (G→T or G→U) located in the middle of the target sequences. In each case the sequence selectivity was confirmed by significant lowering of the melting temperature. The ranges of ΔTm due to the presence of these single mismatches were 8–21 °C for DNA, with the maximum drop in the case of PNA4 and the minimum observed in that of PNA6. For the latter it should be considered that the mismatch was facing the last chiral monomer, preventing the cooperative effect observed in the case of 2D-modifed highly constrained PNA.[22]
Measurements of Tm values: The Tm values were determined with a Lambda Bio 20 spectrophotometer and a Peltier PTP6 temperature programmer. Thermal denaturation profiles were measured by monitoring the absorbance at 260 nm from 18 to 90 °C with a heating rate of 1 °C min^−1 and recording every 0.1 °C. Measurement conditions: [PNA]=[DNA] or [RNA]=5 μM in PBS buffer [pH 7.0, NaCl (100 mM), NaH2PO4⋅H2O (10 mM), EDTA (0.1 mM)] with urea (5 M).

[3] = system: let-7c, miR-10a, miR-93, miR-99b, miR-126, miR-149, miR-424, miR-494, miR-483-5p and miR-625; test: Content of other microRNAs by RT-PCR (sequence specificity); type: cell-based, human; settings: n=3
Procedure: Figure 5 A), B) Effects of treatment with PNA1, PNA2, PNA3, PNA4, PNA5 and PNA6 molecules on miR-210 contents in cells cultured for 24 h A) in the absence (□), and B) in the presence (▪) of MTH (15 nM). Data are reported as arbitrary units relative to cells treated with pept-1 (□) or with pept-1 and MTH (▪). C) Effects of treatment with PNA4 on miRNA contents in cells cultured for 24 h in the presence of MTH; RT-PCR was performed with a TaqMan MicroRNA Reverse Transcription Kit (Applied Biosystems) for let-7c, miR-10a, miR-93, miR-99b, miR-126, miR-149, miR-424, miR-483-5p and miR-625. Data are reported as arbitrary units relative to untreated cells (average ±SD; n=3).
Real-time quantitative PCR: For microRNA quantification with real-time RT-PCR reagents, the primers and probes were obtained from Applied Biosystems. […] Relative expression was calculated by the comparative cycle threshold method and U6 microRNA was used as reference gene to normalise all RNA samples, because it is constant in the assayed samples by miR-profiling and quantitative RT-PCR analysis as previously reported.[25]

How did the “Tm, DNA1 in urea (5 M)” value ([1]; PBS buffer pH 7 (NaCl 100 mM, NaH2PO4 10 mM, EDTA 0.1 mM) with urea 5 M) turn out when “H-C5LArgC5LArgG5LArgC5LArgT5LArgG5LArgT5LArgC5LArgACACGCACAG-NH2 [PNA4, 5L Arg (C5) backbone-modified 18-mer PNA, model 2, stretch of consecutive modified monomers]” was run?
Its value is 77 °C.

And the “Tm, DNA1 in water” value ([1]; PBS buffer pH 7, no urea, 18 to 90 °C at 1 °C/min)?
Its value is over 90 °C.

What about the “ΔTm due to single mismatch, DNA” value ([2]; DNA1 vs DNA2 (G→T in the middle of the target), urea 5 M) of the same substance?
Its value is 21 °C.

What about the “Tm, DNA2 in urea (5 M)” value ([2]; single mismatch, UV absorbance at 260 nm, PBS buffer pH 7 with urea 5 M, strand concentration 5 μM) of the same substance?
The value was 56 °C.

What about the “effect on miR-149 hybridisation signal” value ([3]; K562 cells 24 h in the presence of MTH, RT-PCR) of the same substance?
Its value is “inhibition of the hybridisation signal”.

What about the “effect on hybridisation availability of other miRs” value ([3]; K562 cells 24 h with MTH, let-7c, miR-10a, miR-93, miR-99b, miR-126, miR-424, miR-494, miR-483-5p, miR-625) of the same substance?
Its value is “no major effects”.
